Source: patent US20190375837A1, “IMMUNOCYTOKINE COMBINATION THERAPY” (priority 2017, published 2019)
Where two headings read alike, the source gives them in different places.

Experiments:
[1] = in vivo; conditions: nude, mouse
[2] = test system: SKRC-52 renal cell carcinoma; assay: Tumor therapy in SKRC-52 xenografts: compound 2 with L19-IL2; assay type: in vivo, BALB/c nu/nu mice; conditions: day 17 after tumor implantation; compound 2 250 nmol/kg IV, L19-IL2 2.5 mg/Kg IV, single or combined
Text: Animals were sacrificed when the termination criteria were reached.

[3] = test system: SKRC-52 renal cell carcinoma; conditions: for anti-cancer activity compared to vehicle: 250 nmol/Kg IV per administration, n=4 per group, p<0.0001 for compounds 2 and 4; for tumor growth retardation compared with the other SMDCs: compound 2 vs compound 4
Description: SKRC-52 cells were grown to 80% confluence and detached with Trypsin-EDTA 0.05% (Life Technologies). Cells were washed with Hank's Balanced Salt Solution (HBSS, pH 7.4) once, counted and re-suspended in HBSS to a final concentration of 5×10^7 cells/ml. Aliquots of 5×10^6 cells (100 μl of a suspension) were injected subcutaneously in the right flank of female athymic BALB/c nu/nu mice (6-8 weeks of age, Janvier).

[4] = test system: SKRC-52 xenografts; assay: in vivo; parameters: species or system BALB/c nu/nu mice; conditions: mouse, iv
Description: (§1) Radiolabeling procedures with technetium-99m were performed following described procedures (Krall N, Pretto F, Mattarella M, Muller C, Neri D. A technetium 99m-labeled ligand of carbonic anhydrase IX selectively targets renal cell carcinoma in vivo. J Nucl Med 2016; and Cazzamalli S, Dal Corso A, Neri D. Acetazolamide serves as selective delivery vehicle for dipeptide-linked drugs to renal cell carcinoma. Mol Cancer Ther 2016). Briefly, compounds 8, 9 and 10 (60 nmol) in TBS pH 7.4 (50 μl) were separately mixed with SnCl2 (Sigma Aldrich, 200 μg) and sodium glucoheptonate (TCI, 20 mg) in H2O (150 μl). Tris-buffered saline at pH 7.4 (600 μl) was added and the resulting solution degassed for 5 min by bubbling with nitrogen gas. The eluate from a ^99mTc-generator (200 μl, ca. 200 MBq, Mallinckrodt) was added and the reaction mixture heated to 90° C. for 20 min After cooling to room temperature, analytic aliquots were analyzed by RP-HPLC (XTerra C18, 5% MeCN in 0.1% aq. TFA to 80% over 20 min on a Merck-Hitachi D-7000 HPLC system equipped with a Raytest Gabi Star radiodetector) to determine radiolabelling yields. ^99mTc incorporations >95% were routinely achieved.
(§2) Mice were randomized (n=3 per group) and injected intravenously with radiolabelled preparations of compounds 8, 9 or 10 (1-3 MBq, 30 nmol/Kg). Mice were sacrificed 6 hours after the injection by CO2 asphyxiation and organs extracted, weighted and radioactivity measured with a Packard Cobra γ-counter. Values are expressed as % ID/g ±SD (FIG. 10B).

[5] = in vivo; parameters: species or system BALB/c nu/nu mice; conditions: female, BALB/c nu/nu, mouse, iv, 30 nmol/kg, total radioactivity
Description: as §1, §2

[6] = test system: renal cell carcinoma; conditions: 18 patients with renal cell carcinoma; cited from earlier work
[7] = test system: SKRC-52 renal cell carcinoma; assay: Tumor rechallenge of cured mice with SKRC-52, then treatment of regrowing tumors; assay type: in vivo, BALB/c nu/nu mice; conditions: L19-IL2 2.5 mg/Kg alone; 3 mice
Description: To determine whether the CAIX ligand armed with MMAE (compound 2, see example 1) in combination with L19-IL2 caused acquired protective immunity against the tumor, mice that were cured in the therapy experiment of Example 2 were injected with 5×10^6 cells (100 μl of a suspension) SKRC-52 cells/mouse 20 days after the treatment ended. […] Mice were rearranged in two groups and treated with either the compound 2 alone (250 nmol/Kg; 2 mice), or L19-IL2 (2.5 mg/Kg; 3 mice) alone (see the schedule in FIGS. 4A and 4B).

CC[C@H](C)[C@@H]([C@@H](CC(=O)N1CCC[C@H]1[C@H](OC)[C@@H](C)C(=O)N[C@H](C)[C@@H](O)c1ccccc1)OC)N(C)C(=O)[C@@H](NC(=O)[C@H](C(C)C)N(C)C(=O)OCc1ccc(NC(=O)[C@H](CCCNC(N)=O)NC(=O)[C@@H](NC(=O)CCCCCN2C(=O)CC(SC[C@H](NC(=O)[C@H](CC(=O)O)NC(=O)[C@H](CCCNC(=N)N)NC(=O)[C@H](CC(=O)O)NC(=O)[C@H](CCCCn3cc(CCCC(=O)Nc4nnc(S(N)(=O)=O)s4)nn3)NC(=O)C[C@H](NC(=O)C[C@H](NC(=O)CCC(C)(c3ccc(O)cc3)c3ccc(O)cc3)C(=O)O)C(=O)O)C(=O)O)C2=O)C(C)C)cc1)C(C)C (stereo partly shown) [compound 2, AAZ*-ValCit-MMAE]
MTD [1]: 0.25 µmol/kg | antitumor activity (FIG. 3) [2]: Potent antitumor activity | durable complete response ([3]; 250 nmol/Kg IV): no mice had a durable complete response | tolerability (body weight changes, FIG. 9B) ([3]; 250 nmol/Kg IV): very well tolerated | anti-cancer activity compared to vehicle [3]: potent anti-cancer activity | tumor growth retardation compared with the other SMDCs ([3]; 250 nmol/Kg IV): most potent tumor growth retardation effect | tumor growth retardation compared with the other SMDCs ([3]; 250 nmol/Kg IV, listed as SMDC 2): superior antitumor activity | therapeutic efficacy after presaturation with excess of free AAZ* (compound 7) ([3]; 50-fold dose of AAZ* ligand (1.25 μmol/Kg) directly followed by compound 2 250 nmol/Kg): reduced significantly

CC[C@H](C)[C@@H]([C@@H](CC(=O)N1CCC[C@H]1[C@H](OC)[C@@H](C)C(=O)N[C@H](C)[C@@H](O)c1ccccc1)OC)N(C)C(=O)[C@@H](NC(=O)[C@H](C(C)C)N(C)C(=O)OCc1ccc(NC(=O)[C@H](CCCNC(N)=O)NC(=O)[C@@H](NC(=O)CCCCCN2C(=O)CC(SC[C@H](NC(=O)[C@H](CC(=O)O)NC(=O)[C@H](CCCNC(=N)N)NC(=O)[C@H](CC(=O)O)NC(=O)CCCCn3cc(CCCC(=O)Nc4nnc(S(N)(=O)=O)s4)nn3)C(=O)O)C2=O)C(C)C)cc1)C(C)C (stereo partly shown) [compound 4, AAZ-ValCit-MMAE, reference compound]
anti-cancer activity compared to vehicle [3]: potent anti-cancer activity

CC[C@H](C)[C@@H]([C@@H](CC(=O)N1CCC[C@H]1[C@H](OC)[C@@H](C)C(=O)N[C@H](C)[C@@H](O)c1ccccc1)OC)N(C)C(=O)[C@@H](NC(=O)[C@H](C(C)C)N(C)C(=O)OCc1ccc(NC(=O)[C@H](CCCNC(N)=O)NC(=O)[C@@H](NC(=O)CCCCCN2C(=O)CC(SC[C@H](NC(=O)[C@H](CC(=O)O)NC(=O)[C@H](CCCNC(=N)N)NC(=O)[C@H](CC(=O)O)NC(=O)[C@H](CCCCn3cc(CCCC(N)=O)nn3)NC(=O)C[C@H](NC(=O)C[C@H](NC(=O)CCC(C)(c3ccc(O)cc3)c3ccc(O)cc3)C(=O)O)C(=O)O)C(=O)O)C2=O)C(C)C)cc1)C(C)C (stereo partly shown) [compound 6, NH2^+-ValCit-MMAE]
anti-cancer activity compared to vehicle [3]: did not display a difference from the vehicle-treated group

CC(CCC(=O)N[C@@H](CC(=O)N[C@@H](CC(=O)N[C@@H](CCCCn1cc(CCCC(=O)Nc2nnc(S(N)(=O)=O)s2)nn1)C(=O)NCCCC[C@H](N)C(=O)N[C@@H](CC(=O)O)C(=O)N[C@@H](CS)C(=O)O)C(=O)O)C(=O)O)(c1ccc(O)cc1)c1ccc(O)cc1 [compound 8, AAZ*-^99mTc Chelator, metal not drawn]
tumor to blood ratio [4]: 80:1 | tissue uptake at 6 h [5]: 40 %ID/g

N[C@@H](CCCCNC(=O)[C@H](CC(=O)O)NC(=O)CCCCn1cc(CCCC(=O)Nc2nnc(S(N)(=O)=O)s2)nn1)C(=O)N[C@@H](CC(=O)O)C(=O)N[C@@H](CS)C(=O)O [compound 9, AAZ-^99mTc Chelator, metal not drawn, reference compound]
tissue uptake at 6 h [5]: 18 %ID/g

L19-IL2: immunocytokine in which the anti-EDB antibody L19 (scFv) is conjugated to IL-2, SEQ ID NO: 22
objective responses [6]: no objective responses | antitumor activity (FIG. 3) [2]: Potent antitumor activity | second complete tumor regression of regrowing tumors [7]: second complete tumor regression for all 3 animals
